Experimental findings from patent US7091202B2, “4-arylspirocycloalkyl-2-aminopyrimidine carboxamide KCNQ potassium channel modulators” (Bristol-Myers Squibb Company, priority 2004, dated 2006) are described below.

For orientation: pEC50 means −log10 of the EC50, conventionally taken in molar units.

The test deals with T1, hQ23 (HEK-293 cell line stably transfected with one of the members of the KCNQ family) (Homo sapiens, UniProt O43525+O43526).
T1 construct: expressed in transfected cells; host or cells: HEK-293, stably transfected
Nature of the test: Thallium flux assay for KCNQ channel blockers (FLIPR, BTC dye). The following applies: hQ23 cells, thallium flux assay. The class given is cell-based. In a few lines:
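FLIPR thallium flux readout (BTC dye, 2 μM AM ester) in stably transfected KCNQ HEK-293 cells, chloride-free HEPES buffer pH 7.3, Tl2SO4 stimulus. IC50s were fitted with a single-site logistic equation across 10 points at 1:3 dilutions, defined as 50% of positive-control block; minimal active concentration meant signal ≥4 SD over DMSO controls.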

Each structure is given as a SMILES string. pEC50: −log10 of the molar value.

T1 sequence (O43526 whole entry): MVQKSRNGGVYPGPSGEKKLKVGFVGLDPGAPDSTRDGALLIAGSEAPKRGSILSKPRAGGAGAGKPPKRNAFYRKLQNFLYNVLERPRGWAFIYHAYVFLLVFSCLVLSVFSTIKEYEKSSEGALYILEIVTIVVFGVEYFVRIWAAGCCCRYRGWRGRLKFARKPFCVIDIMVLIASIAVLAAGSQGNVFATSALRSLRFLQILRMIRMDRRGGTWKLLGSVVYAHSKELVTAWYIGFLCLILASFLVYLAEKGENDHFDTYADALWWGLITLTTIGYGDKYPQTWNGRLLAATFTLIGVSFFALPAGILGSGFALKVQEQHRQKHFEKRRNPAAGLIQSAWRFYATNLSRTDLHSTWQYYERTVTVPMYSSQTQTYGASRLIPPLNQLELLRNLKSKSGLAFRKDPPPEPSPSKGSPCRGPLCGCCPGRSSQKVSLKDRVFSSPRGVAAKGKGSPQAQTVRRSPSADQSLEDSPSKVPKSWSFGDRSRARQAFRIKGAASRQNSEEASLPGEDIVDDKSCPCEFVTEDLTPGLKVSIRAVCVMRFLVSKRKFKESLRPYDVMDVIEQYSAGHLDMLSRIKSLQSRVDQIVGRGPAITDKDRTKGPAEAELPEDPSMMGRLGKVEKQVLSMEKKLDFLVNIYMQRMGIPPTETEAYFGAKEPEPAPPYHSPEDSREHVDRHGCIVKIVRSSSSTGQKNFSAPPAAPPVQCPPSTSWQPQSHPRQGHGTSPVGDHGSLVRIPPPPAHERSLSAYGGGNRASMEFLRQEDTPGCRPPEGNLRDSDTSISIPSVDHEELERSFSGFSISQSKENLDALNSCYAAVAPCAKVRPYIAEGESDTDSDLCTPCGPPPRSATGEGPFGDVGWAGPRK
T1 sequence (O43525 whole entry): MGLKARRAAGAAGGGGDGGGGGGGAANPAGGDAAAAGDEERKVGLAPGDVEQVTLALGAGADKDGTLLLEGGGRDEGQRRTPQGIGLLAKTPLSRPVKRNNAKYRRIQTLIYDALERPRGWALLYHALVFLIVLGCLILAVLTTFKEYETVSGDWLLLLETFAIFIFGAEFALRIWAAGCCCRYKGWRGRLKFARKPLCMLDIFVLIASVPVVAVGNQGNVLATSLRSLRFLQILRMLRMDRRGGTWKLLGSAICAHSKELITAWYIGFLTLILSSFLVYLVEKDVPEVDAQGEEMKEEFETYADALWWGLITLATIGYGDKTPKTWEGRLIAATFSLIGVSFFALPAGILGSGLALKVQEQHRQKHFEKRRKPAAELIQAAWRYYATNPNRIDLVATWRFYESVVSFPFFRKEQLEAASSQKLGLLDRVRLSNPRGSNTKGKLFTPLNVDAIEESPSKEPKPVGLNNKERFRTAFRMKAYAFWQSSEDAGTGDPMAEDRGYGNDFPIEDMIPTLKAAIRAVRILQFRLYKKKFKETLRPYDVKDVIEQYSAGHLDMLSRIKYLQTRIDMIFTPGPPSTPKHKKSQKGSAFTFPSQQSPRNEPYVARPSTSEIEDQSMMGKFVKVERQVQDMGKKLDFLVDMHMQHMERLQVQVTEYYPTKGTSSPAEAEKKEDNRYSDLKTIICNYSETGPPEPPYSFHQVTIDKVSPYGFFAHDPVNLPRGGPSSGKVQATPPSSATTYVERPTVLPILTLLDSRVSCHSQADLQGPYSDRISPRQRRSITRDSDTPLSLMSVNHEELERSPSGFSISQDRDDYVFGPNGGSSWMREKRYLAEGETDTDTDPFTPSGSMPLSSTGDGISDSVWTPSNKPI

For the compound `CCC(C)Nc1ncc(C(=O)NCc2ccc3c(c2)OCO3)c(C2(c3ccc(F)cc3)CCCC2)n1` (stereo not shown) [Example 238, 5-pyrimidinecarboxamide, N-(1,3-benzodioxol-5-ylmethyl)-4-[1-(4-fluorophenyl)cyclopentyl]-2-[(1-methylpropyl)amino]-], the pEC50 is 6.46.

In turn, `CN(C)CCNc1ncc(C(=O)NCc2ccc3c(c2)OCO3)c(C2(c3ccc(F)cc3)CCCC2)n1` [Example 239, 5-pyrimidinecarboxamide, N-(1,3-benzodioxol-5-ylmethyl)-2-[[2-(dimethylamino)ethyl]amino]-4-[1-(4-fluorophenyl)cyclopentyl]-] gave a pEC50 of 6.10. As for `CC(NC(=O)c1cnc(NC2CC2)nc1C1(c2ccc(F)cc2)CCCC1)c1cccc2ccccc12` (stereo not shown) [Example 240, 5-pyrimidinecarboxamide, 2-(cyclopropylamino)-4-[1-(4-fluorophenyl)cyclopentyl]-N-[1-(1-naphthalenyl)ethyl]-], the pEC50 is 6.29.

Turning to `CC1CCC(Nc2ncc(C(=O)NC(C)c3cccc4ccccc34)c(C3(c4ccc(F)cc4)CCCC3)n2)CC1` (stereo not shown) [Example 241, 5-pyrimidinecarboxamide, 4-[1-(4-fluorophenyl)cyclopentyl]-2-[(4-methylcyclohexyl)amino]-N-[1-(1-naphthalenyl)ethyl]-], the negative-log EC50 (pEC50) was 8.00. With `CC(NC(=O)c1cnc(N2CCCC2)nc1C1(c2ccc(F)cc2)CCCC1)c1cccc2ccccc12` (stereo not shown) [Example 242, 5-pyrimidinecarboxamide, 4-[1-(4-fluorophenyl)cyclopentyl]-N-[1-(1-naphthalenyl)ethyl]-2-(1-pyrrolidinyl)-] the figure was 7.47. As for `CC(NC(=O)c1cnc(N2CCN(C)CC2)nc1C1(c2ccc(F)cc2)CCCC1)c1cccc2ccccc12` (stereo not shown) [Example 243, 5-pyrimidinecarboxamide, 4-[1-(4-fluorophenyl)cyclopentyl]-2-(4-methyl-1-piperazinyl)-N-[1-(1-naphthalenyl)ethyl]-], the figure is 6.07; as for `CC1CCCN(c2ncc(C(=O)NC(C)c3cccc4ccccc34)c(C3(c4ccc(F)cc4)CCCC3)n2)C1` (stereo not shown) [Example 244, 5-pyrimidinecarboxamide, 4-[1-(4-fluorophenyl)cyclopentyl]-2-(3-methyl-1-piperidinyl)-N-[1-(1-naphthalenyl)ethyl]-], 8.00.

Take `CC1CCN(c2ncc(C(=O)NC(C)c3cccc4ccccc34)c(C3(c4ccc(F)cc4)CCCC3)n2)CC1` (stereo not shown) [Example 245, 5-pyrimidinecarboxamide, 4-[1-(4-fluorophenyl)cyclopentyl]-2-(4-methyl-1-piperidinyl)-N-[1-(1-naphthalenyl)ethyl]-]: the pEC50 is 8.00. As for `CCC(C)Nc1ncc(C(=O)NC(C)c2cccc3ccccc23)c(C2(c3ccc(F)cc3)CCCC2)n1` (stereo not shown) [Example 246, 5-pyrimidinecarboxamide, 4-[1-(4-fluorophenyl)cyclopentyl]-2-[(1-methylpropyl)amino]-N-[1-(1-naphthalenyl)ethyl]-], the figure is 6.75; as for `CC(NC(=O)c1cnc(NC2CCCC2)nc1C1(c2ccc(F)cc2)CCCC1)c1cccc2ccccc12` (stereo not shown) [Example 247, 5-pyrimidinecarboxamide, 2-(cyclopentylamino)-4-[1-(4-fluorophenyl)cyclopentyl]-N-[1-(1-naphthalenyl)ethyl]-], 7.04. With `CC1CCC(Nc2ncc(C(=O)NCc3cccc4ccccc34)c(C3(c4ccc(F)cc4)CCCC3)n2)CC1` (stereo not shown) [Example 248, 5-pyrimidinecarboxamide, 4-[1-(4-fluorophenyl)cyclopentyl]-2-[(4-methylcyclohexyl)amino]-N-(1-naphthalenylmethyl)-] the figure was 8.00; with `O=C(NCc1cccc2ccccc12)c1cnc(N2CCCC2)nc1C1(c2ccc(F)cc2)CCCC1` [Example 249, 5-pyrimidinecarboxamide, 4-[1-(4-fluorophenyl)cyclopentyl]-N-(1-naphthalenylmethyl)-2-(1-pyrrolidinyl)-], 6.56; with `CC1CCCN(c2ncc(C(=O)NCc3cccc4ccccc34)c(C3(c4ccc(F)cc4)CCCC3)n2)C1` (stereo not shown) [Example 250, 5-pyrimidinecarboxamide, 4-[1-(4-fluorophenyl)cyclopentyl]-2-(3-methyl-1-piperidinyl)-N-(1-naphthalenylmethyl)-], 8.00. With `CC1CCN(c2ncc(C(=O)NCc3cccc4ccccc34)c(C3(c4ccc(F)cc4)CCCC3)n2)CC1` [Example 251, 5-pyrimidinecarboxamide, 4-[1-(4-fluorophenyl)cyclopentyl]-2-(4-methyl-1-piperidinyl)-N-(1-naphthalenylmethyl)-] the figure was 7.82; with `CCC(C)Nc1ncc(C(=O)NCc2cccc3ccccc23)c(C2(c3ccc(F)cc3)CCCC2)n1` (stereo not shown) [Example 252, 5-pyrimidinecarboxamide, 4-[1-(4-fluorophenyl)cyclopentyl]-2-[(1-methylpropyl)amino]-N-(1-naphthalenylmethyl)-], 6.46. Turning to `O=C(NCc1cccc2ccccc12)c1cnc(NC2CCCC2)nc1C1(c2ccc(F)cc2)CCCC1` [Example 253, 5-pyrimidinecarboxamide, 2-(cyclopentylamino)-4-[1-(4-fluorophenyl)cyclopentyl]-N-(1-naphthalenylmethyl)-], the negative logarithm of the EC50 (pEC50) was 6.74.

Take `CN1CCN(c2ncc(C(=O)NCc3ccc(Cl)c(Cl)c3)c(C3(c4ccc(F)cc4)CCCC3)n2)CC1` [Example 254, 5-pyrimidinecarboxamide, N-[(3,4-dichlorophenyl)methyl]-4-[1-(4-fluorophenyl)cyclopentyl]-2-(4-methyl-1-piperazinyl)-]: the negative logarithm of the EC50 (pEC50) was 6.28. The compound `CC1CCCN(c2ncc(C(=O)NCc3ccc(Cl)c(Cl)c3)c(C3(c4ccc(F)cc4)CCCC3)n2)C1` (stereo not shown) [Example 255, 5-pyrimidinecarboxamide, N-[(3,4-dichlorophenyl)methyl]-4-[1-(4-fluorophenyl)cyclopentyl]-2-(3-methyl-1-piperidinyl)-] had a pEC50 of 8.00. This pEC50 lies 1.72 log units higher than the previous one. With `CC1CCN(c2ncc(C(=O)NCc3ccc(Cl)c(Cl)c3)c(C3(c4ccc(F)cc4)CCCC3)n2)CC1` [Example 256, 5-pyrimidinecarboxamide, N-[(3,4-dichlorophenyl)methyl]-4-[1-(4-fluorophenyl)cyclopentyl]-2-(4-methyl-1-piperidinyl)-] the figure was 8.00.

For the compound `CN(C)CCNc1ncc(C(=O)NCc2ccc(Cl)c(Cl)c2)c(C2(c3ccc(F)cc3)CCCC2)n1` [Example 257, 5-pyrimidinecarboxamide, N-[(3,4-dichlorophenyl)methyl]-2-[[2-(dimethylamino)ethyl]amino]-4-[1-(4-fluorophenyl)cyclopentyl]-], the negative-log EC50 (pEC50) was 6.04. `O=C(NCc1ccc(Cl)c(Cl)c1)c1cnc(NC2CCCC2)nc1C1(c2ccc(F)cc2)CCCC1` [Example 258, 5-pyrimidinecarboxamide, 2-(cyclopentylamino)-N-[(3,4-dichlorophenyl)methyl]-4-[1-(4-fluorophenyl)cyclopentyl]-] showed a negative-log EC50 (pEC50) of 7.04. As for `O=C(NCc1ccc(Cl)cc1Cl)c1cnc(NC2CC2)nc1C1(c2ccc(F)cc2)CCCC1` [Example 259, 5-pyrimidinecarboxamide, 2-(cyclopropylamino)-N-[(2,4-dichlorophenyl)methyl]-4-[1-(4-fluorophenyl)cyclopentyl]-], the figure is 6.06.
